Test results: patent US20050209441A1, “Process for promoting proper folding of human serum albumin using a human serum albumin ligand” (priority 2004, published 2005)
Where two headings read alike, the source gives them in different places.

Biological target: human serum albumin (HSA) (Homo sapiens, UniProt P02768)
Assay: HSA refolding with ligand assistance (ED50 for refolding)
Method: Sodium caprate is added to Solution B to a final concentration of 10 mM. Solution B is held at 37° C. for 1-5 minutes.
Step C. […] Sodium caprate is added to Solution C to a final concentration of 10 mM. Solution C is held at 37° C. for a period of 30 minutes.

Chain of human serum albumin (HSA) (P02768 25-609): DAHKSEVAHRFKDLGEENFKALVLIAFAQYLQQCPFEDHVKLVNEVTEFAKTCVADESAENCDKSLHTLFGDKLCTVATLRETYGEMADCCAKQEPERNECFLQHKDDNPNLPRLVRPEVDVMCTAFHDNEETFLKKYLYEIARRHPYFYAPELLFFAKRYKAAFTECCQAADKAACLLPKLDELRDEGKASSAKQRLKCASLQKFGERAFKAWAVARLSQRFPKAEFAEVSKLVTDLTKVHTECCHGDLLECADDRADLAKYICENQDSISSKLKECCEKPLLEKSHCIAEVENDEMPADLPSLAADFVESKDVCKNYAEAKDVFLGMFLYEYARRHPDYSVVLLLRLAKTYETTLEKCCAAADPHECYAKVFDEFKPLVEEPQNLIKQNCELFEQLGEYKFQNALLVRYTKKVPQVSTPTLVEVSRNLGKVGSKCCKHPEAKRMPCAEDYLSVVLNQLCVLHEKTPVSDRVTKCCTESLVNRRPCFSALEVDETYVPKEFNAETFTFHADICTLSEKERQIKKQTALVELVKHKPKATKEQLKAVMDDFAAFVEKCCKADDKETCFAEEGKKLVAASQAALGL

| Structure (SMILES) | Optimal Concentration (refolding ligand) (Table 1) | EC50 | Optimal Concentration (refolding ligand) |
| --- | --- | --- | --- |
| CCCCCCCCCCO [1-Decanol (C10), 1-Decanol] | 3 mM | 300 µM | – |
| CCCCCCCCCCCCO [1-Dodecanol (C12), 1-Dodecanol] | – | 230 µM | 0.3 mM (saturated) |
| CCCCCCCCO [1-Octanol (C8), 1-Octanol] | 3 mM | 450 µM | – |
| CCCCCC(=O)[O-].[Na+] [Na Caproate, sodium caproate] | >30 mM | – | – |
| CCCCCCCCCCCC(=O)[O-].[Na+] [Na Laurate, sodium laurate] | 1 mM | 45 µM | – |

Next, values leading:

| Optimal Concentration (refolding ligand) (Table 1) | EC50 | Optimal Concentration (refolding ligand) | Structure (SMILES) |
| --- | --- | --- | --- |
| 500 mM | – | – | CCCCO [1-Butanol (C4), 1-Butanol] |
| 25 mM | – | – | CCCCCCO [1-Hexanol (C6), 1-Hexanol] |
| 150 mM | – | – | CCCCCO [1-Pentanol (C5), 1-Pentanol] |
| – | 800 µM | – | CCCCOC(=O)c1ccc(N)cc1 [n-butyl p-aminobenzoate] |
